In patent publication US9981976B2, “Piperidine substituted pyrazolo[1,5-A]pyrimidine derivatives with inhibitory activity on the replication of the respiratory syncytial virus (RSV)” (priority 2014, dated 2018):

Legend:
rgRSV224 virus = assay: microbe, parasite or virus in culture; assay type: cell-based, respiratory syncytial virus (RSV); conditions: for EC50: human respiratory syncytial virus, HeLa, 72 h, read-out: RSV HELA pEC50, rgRSV224 virus (MOI=1), HeLa cells, GFP expression three days post-virus exposure (converted)
HeLa cells = assay: Cytotoxicity in HeLa cells, ATP content (ATPlite kit); conditions: three days incubation, CC50 = 50% concentration for cytotoxicity

Structure (SMILES) | EC50 (rgRSV224 virus) [nM] | SI TOX HELA (HeLa cells) | RSV HELA pEC50 (rgRSV224 virus; rgRSV224 virus (MOI=1), HeLa cells, GFP expression three days post-virus exposure)
Cc1cccc2ncnc(N3CCCC[C@H]3c3cc4nc(N5CCC5)cc(N5CCOCC5)n4n3)c12 [P19, (S)-4-(5-(azetidin-1-yl)-2-(1-(5-methylquinazolin-4-yl)piperidin-2-yl)pyrazolo[1,5-a]pyrimidin-7-yl)morpholine] | 10 | <4.3 | 
CS(=O)(=O)Nc1nc(N2CCCC[C@H]2c2cc3nc(N4CCC4)cc(N4CCOCC4)n3n2)c2cc(Cl)ccc2n1 [P33, (S)—N-(4-(2-(5-(azetidin-1-yl)-7-morpholinopyrazolo[1,5-a]-pyrimidin-2-yl)piperidin-1-yl)-6-chloroquinazolin-2-yl)methanesulfonamide] |  | 4.2 | 7.88
Cc1nc(N2CCCCC2c2cc3nc(N4CCC4)cc(N4CCOCC4)n3n2)c2cc[nH]c2n1 (stereo not shown) [P15, 4-(5-(azetidin-1-yl)-2-(1-(2-methyl-7H-pyrrolo[2,3-d]pyrimidin-4-yl)-piperidin-2-yl)pyrazolo[1,5-a]pyrimidin-7-yl)morpholine] | 251 | 4.0 | 
Cc1ccc2nc(NS(C)(=O)=O)nc(N3CCCCC3c3cc4nc(N5CCC5)cc(N5CCOCC5)n4n3)c2c1 (stereo not shown) [P6, N-(4-(2-(5-(azetidin-1-yl)-7-morpholinopyrazolo[1,5-a]pyrimidin-2-yl)piperidin-1-yl)-6-methylquinazolin-2-yl)methanesulfonamide] | 5.01 | <4.0 | 
Cc1ccc2ncnc(N3CCCCC3c3cc4nc(N5CCC(N)C5)ccn4n3)c2c1 (stereo in doubt) [P49, (3S)-1-(2-(1-(6-methylquinazolin-4-yl)piperidin-2-yl)pyrazolo[1,5-a]pyrimidin-5-yl)pyrrolidin-3-amine] | 794 | 4.3 | 
Cc1cccc2ncnc(N3CCCCC3c3cc4nc(N5CCC5)cc(N5CCNCC5)n4n3)c12 (stereo not shown) [P53, 4-(2-(5-(azetidin-1-yl)-7-(piperazin-1-yl)pyrazolo[1,5-a]pyrimidin-2-yl)piperidin-1-yl)-5-methylquinazoline] | 50.1 | 4.6 | 
Cc1cccc2ncnc(N3CCCCC3c3cc4nc(N5CCC5)cc(N5CCN(C(=O)OC(C)(C)C)CC5)n4n3)c12 (stereo not shown) [P52, tert-butyl4-(5-(azetidin-1-yl)-2-(1-(5-methylquinazolin-4-yl)piperidin-2-yl)pyrazolo[1,5-a]pyrimidin-7-yl)piperazine-1-carboxylate] | 79.4 | 4.7 | 
Clc1ccc2ncnc(N3CCCC[C@H]3c3cc4nc(N5CCC5)cc(N5CCOCC5)n4n3)c2c1 [P2, (S)-4-(5-(azetidin-1-yl)-2-(1-(6-chloroquinazolin-4-yl)piperidin-2-yl)-pyrazolo[1,5-a]pyrimidin-7-yl)morpholine] | 316 | 4.4 | 
Cc1cn2nc(C3CCCCN3c3nc(NS(C)(=O)=O)nc4cccc(C)c34)cc2nc1N1CC(O)C1 (stereo not shown) [P41, N-(4-(2-(5-(3-hydroxyazetidin-1-yl)-6-methylpyrazolo[1,5-a]-pyrimidin-2-yl)piperidin-1-yl)-5-methylquinazolin-2-yl)methanesulfonamide] | 79.4 | <4 | 
Cc1cn2nc([C@@H]3CCCCN3c3ncnc4cccc(C)c34)cc2nc1N1CC(O)C1 [P25, (S)-1-(6-methyl-2-(1-(5-methylquinazolin-4-yl)-piperidin-2-yl)pyrazolo[1,5-a]pyrimidin-5-yl)azetidin-3-ol] | 31.6 | <4.6 | 
Cc1cccc2ncnc(N3CCCCC3c3cc4nc(N5CCC5)cc(N5CCOCC5)n4n3)c12 (stereo not shown) [P17, 4-(5-(azetidin-1-yl)-2-(1-(5-methylquinazolin-4-yl)piperidin-2-yl)-pyrazolo[1,5-a]pyrimidin-7-yl)morpholine] | 3.98 | 4.4 | 
